Among the data in US10189839B2, “Tricyclic imidazole compounds as inhibitors of tryptophan hydroxylase” (ACTELION PHARMACEUTICALS LTD, priority 2013, dated 2019) are IC50 values, retold here.

The target in the first test is T1, full length human TPH1 (Homo sapiens, UniProt P17752).
T1 construct: To generate the enzyme, full length human TPH1 is cloned into the plasmid pET20b(+); made in house; host or cells: E. coli
T1 sequence (P17752 1-444): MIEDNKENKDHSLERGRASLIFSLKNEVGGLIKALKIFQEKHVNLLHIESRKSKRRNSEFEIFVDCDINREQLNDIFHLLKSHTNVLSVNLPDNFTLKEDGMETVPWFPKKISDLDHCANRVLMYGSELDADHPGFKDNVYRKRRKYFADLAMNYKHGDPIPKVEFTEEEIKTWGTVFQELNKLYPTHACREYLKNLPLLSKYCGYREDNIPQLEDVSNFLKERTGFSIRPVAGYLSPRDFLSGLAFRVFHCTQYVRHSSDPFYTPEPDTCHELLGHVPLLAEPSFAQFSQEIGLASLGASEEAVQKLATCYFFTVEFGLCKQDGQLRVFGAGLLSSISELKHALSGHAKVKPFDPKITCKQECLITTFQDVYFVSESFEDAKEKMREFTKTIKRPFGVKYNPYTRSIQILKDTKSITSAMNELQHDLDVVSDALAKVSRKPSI
Put plainly: Biochemical in vitro assay using fluorescence readout (TPH1 enzyme activity). As to conditions: Table 1, mean where determined several times. An excerpt: Inhibitory activities on tryptophan hydroxylase 1 have been measured for each example compound using the following procedure:
Biochemical In Vitro Assay Using Fluorescence Readout
To generate the enzyme, full length human TPH1 is cloned into the plasmid pET20b(+) (Novagen) and expressed in E. coli. The bacterial cells are ruptured by sonication on ice and the lysate is cleared by centrifugation. The resulting protein in the pellet is re-extracted and TPH1 is purified from the obtained lysate by affinity chromatography using a pterin cosubstrate analog immobilized to the resin of the column. The protein is further purified by size exclusion chromatography to remove protein aggregates. The activity of TPH1 is determined by using a fluorescence assay. The enzyme activity assay is carried out at 15° C. with atmosphere oxygen for the duration of 60 minutes in a volume of 64 μl. The reaction is carried out in a 0.1M Tris-HCl buffer, adjusted to pH 7.6, containing 1 mM DTT, 0.2 mg/ml catalase, 100 μM (±)-6-methyl-5,6,7,8-tetrahydropterine dihydrochloride, 40 μM L-tryptophan, and 40-80 nM of TPH1. The reaction is started by bringing together L-tryptophan with all the other reaction substituents and stopped by quenching with perchloric acid (HClO4). The amount of 5-hydroxy-L-tryptophan produced during the enzymatic reaction is determined by fluorescence readout. Fluorescence, as determined at 540 nm when excited at 300 nm wavelength, increases proportionally to the 5-hydroxy-L-tryptophan formed. Compounds are prepared as 10 mM stock solution in DMSO, then diluted in 384-well plates using DMSO followed by a transfer of the dilutions into the assay plate. Fluorescence is measured for each well and the fluorescence at 540 nm wavelength is compared to the fluorescence of the vehicle in place of compound. Inhibitory activities of example compounds with respect to the TPH1 protein are determined by calculating the IC50 value (the concentration of compound needed to inhibit 50% of the enzyme activity). The calculated IC50 values may fluctuate depending on the daily biochemical assay performance. Fluctuations of this kind are known to those skilled in the art. In the case where IC50 values have been determined several times for the same compound, the mean is given.
Take `Cc1cnc(C2c3c(nc4n3CCCC4)CCN2C(=O)COc2ccc(C(=O)N(C)C3CC3)nc2Cl)c(F)c1` (stereo not shown) [Example 1.6.3, 6-chloro-N-cyclopropyl-5-(2-(1-(3-fluoro-5-methyl-pyridin-2-yl)-3,4,6,7,8,9-hexahydroimidazo[1,2-a:5,4-c′]dipyridin-2(1H)-yl)-2-oxoethoxy)-N-methyl-picolinamide]: 114 nM corresponded to half-maximal inhibition (IC50).

As to `Cc1cnc(C2c3c(nc4n3CCCC4)CCN2C(=O)COc2ccc(C(=O)N(C)C)nc2Cl)c(F)c1` (stereo not shown) [Example 1.6.4, 6-chloro-5-(2-(1-(3-fluoro-5-methylpyridin-2-yl)-3,4,6,7,8,9-hexahydroimidazo[1,2-a:5,4-c′]dipyridin-2(1H)-yl)-2-oxoethoxy)-N,N-dimethylpicolinamide], the IC50 amounted to 33 nM.

`Cc1cnc(C2c3c(nc4n3CCCC4)CCN2C(=O)COc2ccc(N3CCCS3(=O)=O)nc2Cl)c(F)c1` (stereo not shown) [Example 1.6.5, 2-((2-chloro-6-(1,1-dioxidoisothiazolidin-2-yl)pyridin-3-yl)oxy)-1-(1-(3-fluoro-5-methylpyridin-2-yl)-3,4,6,7,8,9-hexahydroimidazo[1,2-a:5,4-c′]dipyridin-2(1H)-yl)ethanone] displayed an IC50 of 16 nM. This IC50 is about 2.1-fold lower than that of the compound before. Turning to `Cc1cnc(C2c3c(nc4n3CCCC4)CCN2C(=O)COc2ccc(N(C)S(C)(=O)=O)nc2Cl)c(F)c1` (stereo not shown) [Example 1.6.6, N-(6-chloro-5-(2-(1-(3-fluoro-5-methylpyridin-2-yl)-3,4,6,7,8,9-hexahydroimidazo[1,2-a:5,4-c′]dipyridin-2(1H)-yl)-2-oxoethoxy)pyridin-2-yl)-N-methylmethanesulfonamide], it took 44 nM to reach half-maximal inhibition (IC50). Still for that read-out and setting: next, `CCc1nc(C(=O)NC2CC2)ccc1OCC(=O)N1CCc2nc3n(c2C1c1ncc(C)cc1F)CCCC3` (stereo not shown) [Example 1.6.7, N-cyclopropyl-6-ethyl-5-(2-(1-(3-fluoro-5-methylpyridin-2-yl)-3,4,6,7,8,9-hexahydroimidazo[1,2-a:5,4-c′]dipyridin-2(1H)-yl)-2-oxoethoxy)picolinamide]: 8 nM; `CN(C(=O)c1ccc(OCC(=O)N2CCc3nc4n(c3C2c2ccc(C3CC3)cc2F)CCCC4)c(Cl)n1)C1CC1` (stereo not shown) [Example 1.8.1, 6-chloro-N-cyclopropyl-5-(2-(1-(4-cyclopropyl-2-fluorophenyl)-3,4,6,7,8,9-hexahydroimidazo[1,2-a:5,4-c′]dipyridin-2(1H)-yl)-2-oxoethoxy)-N-methylpicolinamide]: 20 nM.

For `O=C(COc1ccc(-c2ncco2)nc1Cl)N1CCc2nc3n(c2C1c1ccc(C2CC2)cc1F)CCCC3` (stereo not shown) [Example 1.8.2, 2-((2-chloro-6-(oxazol-2-yl)pyridin-3-yl)oxy)-1-(1-(4-cyclopropyl-2-fluorophenyl)-3,4,6,7,8,9-hexahydroimi-dazo[1,2-a:5,4-c′]dipyridin-2(1H)-yl)ethanone], the IC50 was determined as 17 nM. This IC50 and that of the compound before are within 1.5-fold of each other.

With `CS(=O)(=O)Nc1ccc(OCC(=O)N2CCc3nc4n(c3C2c2ccc(C3CC3)cc2F)CCCC4)c(Cl)n1` (stereo not shown) [Example 1.8.3, N-(6-chloro-5-(2-(1-(4-cyclopropyl-2-fluorophenyl)-3,4,6,7,8,9-hexahydroimidazo[1,2-a:5,4-c′]dipyridin-2(1H)-yl)-2-oxoethoxy)pyridin-2-yl)methanesulfonamide], the IC50 is 22 nM. `CN(C)C(=O)c1ccc(OCC(=O)N2CCc3nc4n(c3C2c2ccc(C3CC3)cc2F)CCCC4)c(Cl)n1` (stereo not shown) [Example 1.8.4, 6-chloro-5-(2-(1-(4-cyclopropyl-2-fluorophenyl)-3,4,6,7,8,9-hexahydroimidazo[1,2-a:5,4-c′]dipyridin-2(1H)-yl)-2-oxoethoxy)-N,N-dimethylpicolinamide] registered an IC50 of 11 nM.

Still in this test, the particulars now being: Table 2.
Compound `CNC(=O)c1csc(C2c3c(nc4n3CCCC4)CCN2C(=O)COc2ccc(NS(C)(=O)=O)nc2Cl)n1` (stereo not shown) [Example 1.7.1, 2-(2-(2-((2-Chloro-6-(methylsulfonamido)pyridin-3-yl)oxy)acetyl)-1,2,3,4,6,7,8,9-octahydroimidazo[1,2-a:5,4-c′]dipyridin-1-yl)-N-methylthiazole-4-carboxamide] came in with an IC50 of 844 nM.
